In patent US5366992A, “Benzoic acid substituted derivatives having cardiovascular activity” (Italfarmaco S.p.A., priority 1990, dated 1994):
Where a name gives a salt, the structure may show the parent alone.

Key:
[1] = system: noradrenaline-contracted rat aortha strip; assay: in vitro vasorelaxing activity, noradrenaline-contracted rat aortha strip; details: concentration inhibiting by 50% the contraction of noradrenaline-contracted rat aortha strip
Method: The in vitro vasorelaxing activity of the compounds of the present invention was evaluated in the test of the noradrenaline-contracted rat aortha strip. The test was carried out according to the procedure described by K. Murakami et al., Eur. J. Pharmacol., 141, 195, 1987. The IC50 values, i.e. the concentration of active substance, expressed in mol/1, inhibiting by 50% the aortha strip contraction, were evaluated.

[2] = system: Sprague Dawley anesthetized rats; assay: in vivo antianginal activity, Arg-vasopressin-induced coronaric spasm (T wave increase) in anesthetized rats; design: species or system Sprague Dawley rat; details: 3 mg/kg through gastric probe, one hour before i.v. Arg-vasopressin (1 I.U./kg)
Method: In vivo antianginal activity was evaluated in Sprague Dawley anesthetized rats of 350-400 g mean weight, according to the procedure by M. Leitold et al., Arzneim. Forsch. 36, 1454, 1986. The test was carried out by intravenously administering to the animal one I.U./kg (equivalent to 3 mg/kg) of Arg-vasoprexine inducing a choronaric spasm which can be reproduced and electrocardiographically evidenced by an increase in the T wave. The compounds of the invention were administered through a gastric probe at a dose of 3 mg/kg, one hour before administering Arg-vasoprexine.The antianginal effect was expressed as percent inhibition of the increase in T wave versus controls.

SMILES	IC50 [1]	% Inhibition of the increase in T waves versus controls [2]
CC(=O)Oc1cccc(C(=O)NCCCCCO[N+](=O)[O-])c1 [3 B]	1200 nM	
CC(=O)Oc1ccccc1C(=O)NCCCCCO[N+](=O)[O-] [4 B]	110 nM	53%
CC(=O)Oc1ccccc1C(=O)OCCO[N+](=O)[O-] [8 B]	13 nM	61%
O=C(NCCO[N+](=O)[O-])c1ccccc1O [9 A]	160 nM	42%
CC(=O)Oc1cccc(C(=O)NCCO[N+](=O)[O-])c1 [Example 1, 3-Acetoxy-N-(2-nitroxyethyl)-benzamide]	160 nM	
CC(=O)Oc1ccc(C(=O)NCCO[N+](=O)[O-])cc1 [Example 2, 4-Acetoxy-N-(2-nitroxyethyl)-benzamide]	2300 nM	55%
O=C(NCCO[N+](=O)[O-])c1ccccc1OC(=O)C1CSCN1 (centres unmarked) [Example 9, N-(2-Nitroxyethyl)-2-[(4-thiazolidinyl)carbonyloxy]benzamide hydrochloride]	540 nM	
